{
  "source": "patent US20200113852A1",
  "about": "“METHODS OF PATIENT SELECTION AND TREATING TRXR- OR PRDX-OVEREXPRESSED CANCERS” (TRIACT THERAPEUTICS, INC., priority 2017, published 2020)",
  "key": {"[1]": {"target": "T1, TrxR in HCT116 cells (Homo sapiens, UniProt Q16881)", "T1 sequence (Q16881 1-649)": "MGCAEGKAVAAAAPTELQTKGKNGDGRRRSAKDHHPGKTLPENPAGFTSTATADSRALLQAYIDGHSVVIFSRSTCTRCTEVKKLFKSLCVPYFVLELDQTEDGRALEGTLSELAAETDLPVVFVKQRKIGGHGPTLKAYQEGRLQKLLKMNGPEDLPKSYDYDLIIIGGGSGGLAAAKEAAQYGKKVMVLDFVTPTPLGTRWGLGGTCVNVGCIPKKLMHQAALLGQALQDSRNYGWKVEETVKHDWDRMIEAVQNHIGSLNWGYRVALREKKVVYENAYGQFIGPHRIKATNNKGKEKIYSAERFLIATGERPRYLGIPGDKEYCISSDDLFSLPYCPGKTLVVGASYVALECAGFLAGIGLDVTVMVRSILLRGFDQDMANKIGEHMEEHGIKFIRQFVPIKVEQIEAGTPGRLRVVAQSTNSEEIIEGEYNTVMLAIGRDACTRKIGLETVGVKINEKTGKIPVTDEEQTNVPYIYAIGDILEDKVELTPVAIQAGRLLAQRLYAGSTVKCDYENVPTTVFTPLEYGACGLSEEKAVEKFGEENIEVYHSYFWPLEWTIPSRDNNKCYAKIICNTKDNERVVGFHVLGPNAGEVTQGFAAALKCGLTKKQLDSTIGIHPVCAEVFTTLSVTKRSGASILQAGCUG", "test": "Endogenous TrxR activity in cell lysates (DTNB reduction assay)", "format": "cell-based"}, "[2]": {"tested_on": "TrxR in MDA-MB-231 cells", "test": "Endogenous TrxR activity (DTNB reduction assay)", "format": "cell-based, human", "conditions": "GSH-depleted MDA-MB-231; iniparib 100 μM, Auranofin 1 μM, up to 4 h", "text": "Initial velocities were derived from linear regression analyses and then plotted in double reciprocal plots to obtain the half time of TrxR inhibition using an one phase exponential decay analysis (Prism, GraphPad software)."}, "[3]": {"tested_on": "TrxR1 and other protein targets in HCT116 cells", "conditions": "GSH-depleted HCT116", "protocol": "(§3) TrxR1 immunoprecipitates (FIG. 17A) and cells extracts (FIG. 17B) were analysed by SDS-PAGE under reducing conditions followed by streptavidin-HRP blot and TrxR1 blot.\n(§4) Clarified octyl-glucoside lysates (12 mg proteins) were combined with anti-TrxR1 or anti-TrxR2 monoclonal antibody coupled to protein G plus agarose (Santa Cruz Biotechnology) and mixed overnight at 4° C. Beads were recovered by centrifugation for 2 min at 1,000×g and extensively washed in octyl-glucoside lysis buffer. Precipitated complexes were eluted by incubating the beads for 20 min at 60° C. in SDS sample buffer. The amount of immunoprecipitated TrxR1 and TrxR2 was systematically checked by blots anti-TrxR1 and anti-TrxR2, respectively."}, "[4]": {"target": "T2, TrxR1 and other protein targets in HCT116 cells (Homo sapiens, UniProt Q16881)", "T2 sequence (Q16881 1-499 isoform Q16881-5)": "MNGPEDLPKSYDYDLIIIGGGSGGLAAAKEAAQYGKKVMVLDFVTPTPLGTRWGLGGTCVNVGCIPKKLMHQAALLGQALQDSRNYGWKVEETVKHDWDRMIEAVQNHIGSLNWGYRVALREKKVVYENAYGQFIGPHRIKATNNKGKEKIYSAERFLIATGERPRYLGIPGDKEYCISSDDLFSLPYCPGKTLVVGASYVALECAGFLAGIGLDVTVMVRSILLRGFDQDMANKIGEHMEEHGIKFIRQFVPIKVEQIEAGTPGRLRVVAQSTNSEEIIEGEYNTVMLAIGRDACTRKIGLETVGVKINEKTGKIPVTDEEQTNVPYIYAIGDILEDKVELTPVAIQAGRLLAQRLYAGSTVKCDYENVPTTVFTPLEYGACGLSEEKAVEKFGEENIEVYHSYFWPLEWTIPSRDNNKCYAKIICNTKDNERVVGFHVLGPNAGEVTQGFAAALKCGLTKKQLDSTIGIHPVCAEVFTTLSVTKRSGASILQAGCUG", "protocol": "as §3, §4"}, "[5]": {"tested_on": "Trx, JNK, p38MAPK, PARP in HCT116 cells", "test": "Cell death signaling western blots (Trx oxidation, phospho-JNK, phospho-p38MAPK, cleaved-PARP)", "conditions": "GSH-depleted HCT116, 7 h or 24 h", "protocol": "Cells extracts were analyzed by SDS-PAGE either under reducing conditions or under non-reducing conditions in the case of Trx blot followed by blots anti-phospho-JNK, anti-phospho-p38MAPK, anti-cleaved-PARP and anti-Trx. Results are representative of three independent experiments.\nAfter 2 h at 4° C., lysates were clarified by centrifugation and protein amounts were measured using the BCA assay (Pierce, Thermo scientific).\nEqual amounts of proteins were resolved by SDS-PAGE under either non-reducing or reducing (5% 2-mercaptoethanol, 20 min at 60° C.) conditions, using 4-20% gels (Novex, Invitrogen), then subjected to semi-dry electrophoretic transfer onto nitrocellulose membranes."}, "[6]": {"tested_on": "GSH in HCT116 and MDA-MB-453 cell lines", "test": "GSH depletion with BSO (GSH-Glo glutathione assay)", "format": "cell-based, human", "conditions": "1 mM BSO for 18 h, both cell lines", "description": "Cells were seeded (96 well plates) at increasing densities, the highest density corresponding to that used for viability studies. […] GSH amount was measured thereafter using GSH-Glo™ glutathione assay."}, "[7]": {"test": "Phase I clinical trial GBM, pharmacokinetics", "format": "in vivo, human", "conditions": "for Metabolite/iniparib concentration ratio: arithmetic average±SD; for Cmax: human, geometric mean±SD, plasma, read-out: Cmax", "text": "No cytochrome P450-inducing anticonvulsants. However, Gliadel was permitted.\nDosing is IV 2×/week continuous."}, "[8]": {"tested_on": "MDA-MB-453 cells", "test": "Iniparib metabolites release, XLC-MS/MS of incubation media", "format": "in vitro ADME, human", "design": "unit not given beside the values", "description": "(§1) Online solid phase extraction (SPE) was performed using the fully automated Spark Holland Symbiosis™ (Emmen, The Netherlands) in eXtraction Liquid Chromatography (XLC) mode. The Symbiosis™ has previously been described in detail (18). HySphere™ C18 HD 7 μm SPE cartridges were used (Spark Holland). Each cartridge was initially conditioned with 2 ml methanol+0.5% formic acid (FA) and then equilibrated with 2 ml water+0.5% FA, both at flow-rates of 4 ml/min. Sample (25 μl) was aspirated and loaded onto the cartridge with 1 ml water+0.5% FA at a flow-rate of 1 ml/min. […] After elution, the right clamp was washed successively with 2 ml water+0.5% FA, 2 ml methanol+0.5% FA and 2 ml water+0.5% FA at 4 ml/min. […] The mobile phase composition was returned to starting conditions over 1 min and maintained during 6 min for column equilibration. The total run time was 27 min. Mass spectrometry was performed using the Thermo® TSQ Quantum Discovery Max in electrospray positive ionization mode (Thermo, US) with the following parameters: capillary voltage=4.0 kV, capillary temperature=300° C., sheath gas pressure=40, auxiliary gas pressure=5.\n(§2) All values are expressed as means±SEM of three independent experiments. ND., non detectable."}, "[9]": {"tested_on": "HCT116 cells", "test": "Iniparib metabolites release, XLC-MS/MS of incubation media", "format": "in vitro ADME, human", "design": "unit not given beside the values", "description": "as §1, §2"}},
  "note": "Like-named read-outs stand apart in the source and are kept apart here.",
  "data": [
    {"smiles": "CC(=O)OC[C@H]1O[C@@H]([S-])[C@H](OC(C)=O)[C@@H](OC(C)=O)[C@@H]1OC(C)=O.CCP(CC)CC.[Au+]", "note": "[Auranofin]", "values": [
      {"measurement": "inhibition of TrxR activity", "setting": "[1]; 1 μM, immediately after adding the compound to the cells", "value": "inhibited almost completely"},
      {"measurement": "IC50", "setting": "[1]; 4 h treatment, BSO-pretreated HCT116", "value": 70, "unit": "nM"},
      {"measurement": "TrxR reductase activity", "setting": "[2]", "value": "inhibition of the reductase activity"},
      {"measurement": "concentration inhibiting all adduct formation with Iniparib-biotin", "setting": "[3]", "value": "1 to 3", "unit": "µM"},
      {"measurement": "TrxR1 labeling with Iniparib-biotin after preincubation", "setting": "[4]; 90-min preincubation of GSH-depleted HCT116 (auranofin 10 μM or Iniparib 100 μM)", "value": "abolished"},
      {"measurement": "concentration preventing Iniparib-biotin labeling of the 55-kDa protein attributed to TrxR", "setting": "[4]; GSH-depleted HCT116", "value": "0.1 to 0.3", "unit": "µM"},
      {"measurement": "p38MAPK and JNK phosphorylation", "setting": "[5]", "value": "JNK and p38MAPK activation"}
    ]},
    {"smiles": "CCCCS(=N)(=O)CCC(N)C(=O)O", "note": "[BSO, L-buthionine sulfoximine]", "values": [
      {"measurement": "GSH content", "setting": "[6]", "value": "below 5 % of controls"}
    ]},
    {"smiles": "NC(=O)c1ccc(I)c(N)c1", "note": "[I-ABM, 4-iodo-3 aminobenzamide]", "values": [
      {"measurement": "Metabolite/iniparib concentration ratio", "setting": "[7]; 5.1 mg/kg", "value": "1.1 ± 0.6", "unit": "%"},
      {"measurement": "Metabolite/iniparib concentration ratio", "setting": "[7]; 6.1 mg/kg", "value": "0.9 ± 0.6", "unit": "%"},
      {"measurement": "Metabolite/iniparib concentration ratio", "setting": "[7]; 6.8 mg/kg", "value": "1.1 ± 0.9", "unit": "%"},
      {"measurement": "Metabolite/iniparib concentration ratio", "setting": "[7]; 8.0 mg/kg", "value": "0.3 ± 0.1", "unit": "%"},
      {"measurement": "Metabolite/iniparib concentration ratio", "setting": "[7]; 8.6 mg/kg", "value": "0.8 ± 0.6", "unit": "%"},
      {"measurement": "Metabolite/iniparib concentration ratio", "setting": "[7]; 9.5 mg/kg", "value": "0.8 ± 0.6", "unit": "%"},
      {"measurement": "Cmax", "setting": "[7]; 5.1 mg/kg IV 2×/week", "value": "5.7 ± 4.1", "unit": "ng/mL"},
      {"measurement": "Cmax", "setting": "[7]; 6.1 mg/kg IV 2×/week", "value": "7.2 ± 1.8", "unit": "ng/mL"},
      {"measurement": "Cmax", "setting": "[7]; 6.8 mg/kg IV 2×/week", "value": "8.4 ± 3.7", "unit": "ng/mL"},
      {"measurement": "Cmax", "setting": "[7]; 8.0 mg/kg IV 2×/week", "value": "10.3 ± 2.9", "unit": "ng/mL"},
      {"measurement": "Cmax", "setting": "[7]; 8.6 mg/kg IV 2×/week", "value": "9.7 ± 2.4", "unit": "ng/mL"},
      {"measurement": "Cmax", "setting": "[7]; 9.5 mg/kg IV 2×/week", "value": "13.6 ± 5.3", "unit": "ng/mL"},
      {"measurement": "Iniparib and metabolites in incubation media", "setting": "[8]; MDA-MB-453 w BSO, 1 h after 100 μM Iniparib", "value": "0.3 ± 0.1"},
      {"measurement": "Iniparib and metabolites in incubation media", "setting": "[8]; MDA-MB-453 w BSO, 5 h after 100 μM Iniparib", "value": "1.4 ± 0.1"},
      {"measurement": "Iniparib and metabolites in incubation media", "setting": "[8]; MDA-MB-453 w BSO, 24 h after 100 μM Iniparib", "value": "5.4 ± 0.2"},
      {"measurement": "Iniparib and metabolites in incubation media", "setting": "[8]; MDA-MB-453 w/o BSO, 1 h after 100 μM Iniparib", "value": "0.2 ± 0.0"},
      {"measurement": "Iniparib and metabolites in incubation media", "setting": "[8]; MDA-MB-453 w/o BSO, 5 h after 100 μM Iniparib", "value": "0.5 ± 0.2"},
      {"measurement": "Iniparib and metabolites in incubation media", "setting": "[8]; MDA-MB-453 w/o BSO, 24 h after 100 μM Iniparib", "value": "2.6 ± 0.2"},
      {"measurement": "Iniparib and metabolites in incubation media", "setting": "[9]; HCT116 w BSO, 1 h after 100 μM Iniparib", "value": "0.3 ± 0.1"},
      {"measurement": "Iniparib and metabolites in incubation media", "setting": "[9]; HCT116 w BSO, 5 h after 100 μM Iniparib", "value": "1.1 ± 0.3"},
      {"measurement": "Iniparib and metabolites in incubation media", "setting": "[9]; HCT116 w BSO, 24 h after 100 μM Iniparib", "value": "4.4 ± 1.2"},
      {"measurement": "Iniparib and metabolites in incubation media", "setting": "[9]; HCT116 w/o BSO, 1 h after 100 μM Iniparib", "value": "0.2 ± 0.1"},
      {"measurement": "Iniparib and metabolites in incubation media", "setting": "[9]; HCT116 w/o BSO, 5 h after 100 μM Iniparib", "value": "0.4 ± 0.1"},
      {"measurement": "Iniparib and metabolites in incubation media", "setting": "[9]; HCT116 w/o BSO, 24 h after 100 μM Iniparib", "value": "0.5 ± 0.2"}
    ]}
  ]
}
